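The compound was tested at five concentrations on cells cultured in 96-well plates, with a 48-hour exposure period. TGI: concentration producing complete growth inhibition.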
Assays:
Assay in all cases: NCI tumour cell line growth inhibition, 48 h
[1] = test system: HS 578T breast
[2] = test system: HCC-2998 colon
[3] = test system: SR leukemia
[4] = test system: UACC-62 melanoma
[5] = test system: 786-0 renal
[6] = test system: SNB-75 CNS
[7] = test system: HOP-92 NSCLC
[8] = test system: MOLT-4 leukemia
[9] = test system: OVCAR-8 ovarian
[10] = test system: K-562 leukemia
[11] = test system: T-47D breast
[12] = test system: SF-268 CNS
[13] = test system: RPMI-8226 leukemia
[14] = test system: A498 renal
[15] = test system: MDA-N
[16] = test system: PC-3 prostate
[17] = test system: UO-31 renal
[18] = test system: SK-MEL-5 melanoma
[19] = test system: ACHN renal
[20] = test system: NCI-H23 lung
[21] = test system: BT-549 breast
[22] = test system: M14 melanoma
[23] = test system: NCI-H460 lung
[24] = test system: HL-60(TB) leukemia
[25] = test system: HOP-62 NSCLC
[26] = test system: SNB-19 CNS
[27] = test system: A549 NSCLC
[28] = test system: HCT-116 colon
[29] = test system: HT29 colon
[30] = test system: OVCAR-5 ovarian
[31] = test system: SK-MEL-28 melanoma
[32] = test system: TK-10 renal
[33] = test system: SF-539 CNS
[34] = test system: IGROV1 ovarian
[35] = test system: SK-MEL-2 melanoma
[36] = test system: MDA-MB-231 breast
[37] = test system: MDA-MB-435
[38] = test system: LOX IMVI melanoma
[39] = test system: NCI/ADR-RES ovarian
[40] = test system: SK-OV-3 ovarian
[41] = test system: HCT-15 colon
[42] = test system: KM12 colon
[43] = test system: CCRF-CEM leukemia
[44] = test system: EKVX NSCLC
[45] = test system: SW-620 colon
[46] = test system: U251 CNS
[47] = test system: MCF7 breast
[48] = test system: NCI-H226 lung
[49] = test system: DU-145 prostate
[50] = test system: COLO 205 colon
[51] = test system: SF-295 CNS
[52] = test system: CAKI-1 renal
[53] = test system: SN12C renal
[54] = test system: MALME-3M melanoma
[55] = test system: RXF 393 renal
[56] = test system: UACC-257 melanoma
[57] = test system: OVCAR-3 ovarian
[58] = test system: NCI-H522 lung
[59] = test system: OVCAR-4 ovarian

Structure (SMILES): Cn1c2ccccc2c2[nH]c3ccccc3c(=O)c21
- TGI [1]: > 100 µM
- TGI [2]: > 100 µM
- TGI [3]: > 100 µM
- TGI [4]: > 100 µM
- TGI [5]: > 100 µM
- TGI [6]: > 100 µM
- TGI [7]: > 100 µM
- TGI [8]: > 100 µM
- TGI [9]: > 100 µM
- TGI [10]: > 100 µM
- TGI [11]: > 100 µM
- TGI [12]: > 100 µM
- TGI [13]: > 100 µM
- TGI [14]: > 100 µM
- TGI [15]: > 100 µM
- TGI [16]: > 100 µM
- TGI [17]: > 100 µM
- TGI [18]: > 100 µM
- TGI [19]: > 100 µM
- TGI [20]: > 100 µM
- TGI [21]: > 100 µM
- TGI [22]: > 100 µM
- TGI [23]: > 100 µM
- TGI [24]: > 100 µM
- TGI [25]: > 100 µM
- TGI [26]: > 100 µM
- TGI [27]: > 100 µM
- TGI [28]: > 100 µM
- TGI [29]: > 100 µM
- TGI [30]: > 100 µM
- TGI [31]: > 100 µM
- TGI [32]: > 100 µM
- TGI [33]: > 100 µM
- TGI [34]: > 100 µM
- TGI [35]: > 100 µM
- TGI [36]: > 100 µM
- TGI [37]: > 100 µM
- TGI [38]: > 100 µM
- TGI [39]: > 100 µM
- TGI [40]: > 100 µM
- TGI [41]: > 100 µM
- TGI [42]: > 100 µM
- TGI [43]: > 100 µM
- TGI [44]: > 100 µM
- TGI [45]: > 100 µM
- TGI [46]: > 100 µM
- TGI [47]: > 100 µM
- TGI [48]: > 100 µM
- TGI [49]: > 100 µM
- TGI [50]: > 100 µM
- TGI [51]: > 100 µM
- TGI [52]: > 100 µM
- TGI [53]: > 100 µM
- TGI [54]: > 100 µM
- TGI [55]: > 100 µM
- TGI [56]: > 100 µM
- TGI [57]: > 100 µM

Structure (SMILES): CN(C)C(=O)Oc1ccc(C(=S)Nc2ccccc2)cc1Br
- TGI [1]: > 100 µM
- TGI [2]: > 100 µM
- TGI [3]: 63.3 µM
- TGI [4]: 74.4 µM
- TGI [5]: > 100 µM
- TGI [8]: 38.1 µM
- TGI [9]: 39.4 µM
- TGI [10]: > 100 µM
- TGI [11]: 80.9 µM
- TGI [12]: 23.5 µM
- TGI [13]: 73.9 µM
- TGI [15]: 57.4 µM
- TGI [16]: > 100 µM
- TGI [17]: > 100 µM
- TGI [18]: 32.2 µM
- TGI [19]: > 100 µM
- TGI [20]: 57.3 µM
- TGI [21]: 68.7 µM
- TGI [22]: 39.8 µM
- TGI [23]: > 100 µM
- TGI [24]: 39.6 µM
- TGI [25]: > 100 µM
- TGI [26]: > 100 µM
- TGI [27]: > 100 µM
- TGI [28]: > 100 µM
- TGI [29]: 65.1 µM
- TGI [30]: > 100 µM
- TGI [31]: > 100 µM
- TGI [33]: > 100 µM
- TGI [34]: 48.9 µM
- TGI [58]: 52.4 µM
- TGI [35]: 71.5 µM
- TGI [37]: 43.9 µM
- TGI [38]: 45.8 µM
- TGI [39]: 63.9 µM
- TGI [40]: > 100 µM
- TGI [41]: > 100 µM
- TGI [42]: 51.6 µM
- TGI [43]: 48.6 µM
- TGI [44]: > 100 µM
- TGI [45]: > 100 µM
- TGI [46]: > 100 µM
- TGI [47]: > 100 µM
- TGI [49]: > 100 µM
- TGI [50]: 55.3 µM
- TGI [51]: > 100 µM
- TGI [52]: > 100 µM
- TGI [54]: > 100 µM
- TGI [59]: > 100 µM
- TGI [56]: 74 µM
- TGI [57]: > 100 µM

Structure (SMILES): CCOC(=O)c1ccc(Nc2cnc3ccc(C(F)(F)F)cc3n2)cc1
- TGI [1]: 59.1 µM
- TGI [2]: 26.7 µM
- TGI [3]: 52.6 µM
- TGI [4]: 33.5 µM
- TGI [5]: 26.8 µM
- TGI [6]: 42.8 µM
- TGI [7]: 23.5 µM
- TGI [8]: 24.5 µM
- TGI [9]: 26 µM
- TGI [10]: 53.7 µM
- TGI [11]: 46.7 µM
- TGI [12]: 34 µM
- TGI [13]: 71.1 µM
- TGI [14]: 33.9 µM
- TGI [15]: 44.6 µM
- TGI [16]: 55.5 µM
- TGI [17]: 48.6 µM
- TGI [18]: 31.2 µM
- TGI [19]: 28.5 µM
- TGI [20]: 28.5 µM
- TGI [21]: 34 µM
- TGI [22]: > 100 µM
- TGI [23]: 27.2 µM
- TGI [24]: 37.7 µM
- TGI [25]: 46.6 µM
- TGI [26]: 84.7 µM
- TGI [27]: 32.3 µM
- TGI [28]: 28 µM
- TGI [29]: 24.1 µM
- TGI [30]: 74.7 µM
- TGI [31]: 43 µM
- TGI [32]: 26.9 µM
- TGI [33]: 63.4 µM
- TGI [34]: 30.4 µM
- TGI [35]: 33.8 µM
- TGI [36]: 43.7 µM
- TGI [37]: 61.8 µM
- TGI [38]: 29.3 µM
- TGI [39]: 30.8 µM
- TGI [40]: > 100 µM
- TGI [41]: 35.5 µM
- TGI [42]: 25.8 µM
- TGI [43]: 36.6 µM
- TGI [44]: 58.4 µM
- TGI [45]: 31.7 µM
- TGI [46]: 31.8 µM
- TGI [47]: 67.1 µM
- TGI [48]: 35.9 µM
- TGI [49]: 47.7 µM
- TGI [50]: 29.3 µM
- TGI [51]: 50.6 µM
- TGI [52]: 30.7 µM
- TGI [53]: 27.2 µM
- TGI [54]: 79.2 µM
- TGI [59]: 32 µM
- TGI [55]: 25.8 µM
- TGI [56]: 56 µM
- TGI [57]: 44.8 µM
